# Results published in ChEMBL document CHEMBL4706647, “Development and optimization of halogenated vinyl sulfones as Nrf2 activators for the treatment of Parkinson's disease” (Eur J Med Chem, 2021).
# Test system: not listed separately
# Assay: Cytotoxicity against mouse BV-2 cells assessed cell viability at 10 uM measured after 6 hrs by Ez-cytox reagent based assay relative to control
# Conditions: read-out: Activity
row,Structure (SMILES),"viability at 6 h, 10 µM"
1,COc1ccccc1S(=O)(=O)/C=C/c1ccccc1Cl,90.1%

# Molecular target: T1, Nuclear factor erythroid 2-related factor 2 (Homo sapiens, UniProt Q16236)
# T1 sequence (Q16236 whole entry): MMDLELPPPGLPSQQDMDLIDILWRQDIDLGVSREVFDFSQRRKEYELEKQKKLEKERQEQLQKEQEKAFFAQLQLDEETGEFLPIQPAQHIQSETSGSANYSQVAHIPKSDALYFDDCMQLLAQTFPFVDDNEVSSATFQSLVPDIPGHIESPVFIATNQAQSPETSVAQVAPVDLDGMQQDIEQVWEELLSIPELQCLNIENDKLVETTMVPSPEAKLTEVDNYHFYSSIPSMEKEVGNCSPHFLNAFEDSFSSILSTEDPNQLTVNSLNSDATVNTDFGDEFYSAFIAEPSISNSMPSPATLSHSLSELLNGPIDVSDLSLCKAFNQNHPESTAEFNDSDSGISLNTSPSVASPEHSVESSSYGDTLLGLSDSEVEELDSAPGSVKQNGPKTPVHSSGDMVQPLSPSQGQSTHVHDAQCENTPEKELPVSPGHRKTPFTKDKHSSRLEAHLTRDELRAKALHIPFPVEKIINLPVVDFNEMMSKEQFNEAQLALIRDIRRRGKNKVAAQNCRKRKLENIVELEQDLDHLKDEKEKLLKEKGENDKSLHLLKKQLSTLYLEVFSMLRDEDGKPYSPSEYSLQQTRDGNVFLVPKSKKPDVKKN
# Assay: Activation of Nrf2 (unknown origin) expressed in human U2OS cells co-expressing Keap1 assessed as increase in Nrf2 nuclear translocation incubated for 6 hrs under dark condition by pathhunter assay
# Format: cell-based
# Conditions: not given
row,Structure (SMILES),EC50
1,O=S(=O)(/C=C/c1ccc(Cl)cn1)c1ccc(F)cc1,4370 nM
2,O=S(=O)(/C=C\c1ncccc1Cl)c1cccc(Cl)c1,290 nM
3,O=S(=O)(/C=C/c1cccnc1)c1ccccc1Cl,2850 nM
4,O=S(=O)(/C=C/c1ccc(Cl)nc1)c1ccc(Cl)cc1,> 10000 nM
5,O=S(=O)(/C=C/c1ccccn1)c1ccccc1Cl,618 nM
6,O=S(=O)(/C=C/c1ccncc1)c1cccc(Cl)c1,528 nM
7,O=S(=O)(/C=C/c1ncccc1F)c1ccccc1F,176 nM
8,O=S(=O)(/C=C/c1cccnc1Cl)c1cccc(F)c1,328 nM
9,O=S(=O)(/C=C/c1ccncc1)c1ccccc1Cl,781 nM
10,O=S(=O)(/C=C/c1ncccc1Cl)c1cccc(Cl)c1,46 nM
11,O=S(=O)(/C=C/c1cccnc1Cl)c1ccccc1Cl,192 nM
12,O=S(=O)(/C=C/c1ccccn1)c1cccc(F)c1,1680 nM
13,O=S(=O)(/C=C\c1ccc(Cl)nc1)c1cccc(Cl)c1,3390 nM
14,O=S(=O)(/C=C/c1cccnc1Cl)c1cccc(Cl)c1,213 nM
15,O=S(=O)(/C=C/c1ncccc1Cl)c1ccc(F)cc1,231 nM
16,O=S(=O)(/C=C\c1ncccc1Cl)c1ccccc1Cl,1100 nM
17,O=S(=O)(/C=C/c1cccnc1Cl)c1ccc(F)cc1,339 nM
18,O=S(=O)(/C=C/c1ccc(Cl)nc1)c1ccccc1Cl,1630 nM
19,O=S(=O)(/C=C/c1ccc(Cl)cn1)c1ccccc1F,1040 nM

row,Structure (SMILES),EC50
1,O=S(=O)(/C=C/c1ncccc1F)c1ccccc1Cl,122 nM
2,O=S(=O)(/C=C/c1ccc(Cl)nc1)c1ccccc1F,2550 nM
3,O=S(=O)(/C=C\c1ncccc1F)c1ccccc1F,482 nM
4,O=S(=O)(/C=C/c1ncccc1F)c1ccc(Cl)cc1,286 nM
5,O=S(=O)(/C=C/c1cccnc1)c1ccccc1F,6850 nM
6,O=S(=O)(/C=C/c1ccccn1)c1cccc(Cl)c1,1430 nM
7,O=S(=O)(/C=C/c1ccccn1)c1ccc(Cl)cc1,1730 nM
8,O=S(=O)(/C=C/c1cccc(Cl)n1)c1cccc(Cl)c1,1070 nM
9,O=S(=O)(/C=C\c1ccc(Cl)nc1)c1cccc(F)c1,965 nM
10,O=S(=O)(/C=C/c1ccccn1)c1ccccc1F,1050 nM
11,O=S(=O)(/C=C/c1ccncc1)c1cccc(F)c1,950 nM
12,O=S(=O)(/C=C\c1ncccc1F)c1ccccc1Cl,583 nM
13,O=S(=O)(/C=C/c1cccc(Cl)n1)c1ccc(Cl)cc1,1460 nM
14,O=S(=O)(/C=C/c1ccc(Cl)nc1)c1ccc(F)cc1,> 10000 nM
15,O=S(=O)(/C=C/c1ncccc1Cl)c1ccc(Cl)cc1,65 nM
16,O=S(=O)(/C=C\c1cccnc1Cl)c1ccccc1Cl,384 nM
17,O=S(=O)(/C=C/c1ncccc1Cl)c1ccccc1F,30 nM
18,O=S(=O)(/C=C\c1ncccc1Cl)c1ccc(Cl)cc1,1750 nM

# Other lines, results leading:
row,EC50,Structure (SMILES)
1,2210 nM,O=S(=O)(/C=C/c1ccc(Cl)nc1)c1cccc(Cl)c1
2,217 nM,O=S(=O)(/C=C/c1cccnc1Cl)c1ccccc1F
3,147 nM,O=S(=O)(/C=C\c1cccc(Cl)n1)c1ccccc1Cl
4,1030 nM,O=S(=O)(/C=C\c1ncccc1Cl)c1ccccc1F
5,4820 nM,O=S(=O)(/C=C\c1cccnc1)c1cccc(F)c1
6,2500 nM,O=S(=O)(/C=C/c1ccc(Cl)cn1)c1cccc(F)c1
7,2940 nM,O=S(=O)(/C=C/c1ccc(Cl)cn1)c1ccccc1Cl
8,474 nM,O=S(=O)(/C=C/c1ncccc1F)c1cccc(F)c1
9,198 nM,O=S(=O)(/C=C/c1ncccc1F)c1cccc(Cl)c1
10,760 nM,O=S(=O)(/C=C/c1ccncc1)c1ccccc1F
11,4870 nM,O=S(=O)(/C=C/c1ccc(Cl)nc1)c1cccc(F)c1
12,1510 nM,O=S(=O)(/C=C/c1ccc(Cl)cn1)c1cccc(Cl)c1
13,3520 nM,O=S(=O)(/C=C/c1cccnc1)c1cccc(Cl)c1
14,542 nM,O=S(=O)(/C=C/c1ncccc1F)c1ccc(F)cc1
15,305 nM,O=S(=O)(/C=C/c1cccnc1Cl)c1ccc(Cl)cc1
16,2790 nM,O=S(=O)(/C=C/c1cccc(Cl)n1)c1ccc(F)cc1
17,3100 nM,O=S(=O)(/C=C/c1ccccn1)c1ccc(F)cc1
18,898 nM,O=S(=O)(/C=C/c1cccc(Cl)n1)c1ccccc1F
19,252 nM,O=S(=O)(/C=C\c1ncccc1F)c1cccc(Cl)c1
20,3390 nM,O=S(=O)(/C=C\c1cccnc1Cl)c1ccccc1F
21,3160 nM,O=S(=O)(/C=C/c1ccc(Cl)cn1)c1ccc(Cl)cc1

# Molecular target: CYP2C9 (Homo sapiens, UniProt P11712)
# Assay: Inhibition of CYP2C9 (unknown origin) assessed as residual activity
# Format: ADME
# Conditions: not given
# CYP2C9, sequence (P11712 whole entry): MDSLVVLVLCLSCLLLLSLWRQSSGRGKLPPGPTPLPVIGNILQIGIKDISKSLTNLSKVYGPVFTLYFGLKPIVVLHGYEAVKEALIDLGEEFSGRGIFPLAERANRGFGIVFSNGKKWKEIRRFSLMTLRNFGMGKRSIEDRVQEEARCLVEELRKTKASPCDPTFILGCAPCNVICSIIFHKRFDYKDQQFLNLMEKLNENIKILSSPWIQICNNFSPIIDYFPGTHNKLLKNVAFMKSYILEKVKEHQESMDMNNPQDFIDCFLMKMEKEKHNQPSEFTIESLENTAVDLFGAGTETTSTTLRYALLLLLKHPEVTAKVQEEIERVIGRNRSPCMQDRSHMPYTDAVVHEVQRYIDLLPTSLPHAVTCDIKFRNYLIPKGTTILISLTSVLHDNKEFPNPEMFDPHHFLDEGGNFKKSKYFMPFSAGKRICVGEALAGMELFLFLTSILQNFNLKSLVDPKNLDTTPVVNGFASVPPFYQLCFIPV
row,Structure (SMILES),activity
1,COc1ccccc1S(=O)(=O)/C=C/c1ccccc1Cl,100%

# Test system: not listed separately
# Assay: Stability in human plasma assessed as parent compound remaining after 30 mins by LC-MS/MS analysis
# Format: ADME, cell-free
# Conditions: read-out: Stabilty
row,Structure (SMILES),remaining at 0.5 h
1,COc1ccccc1S(=O)(=O)/C=C/c1ccccc1Cl,86.1%

# Molecular target: Voltage-gated inwardly rectifying potassium channel KCNH2 (Homo sapiens, UniProt Q12809)
# Assay: Inhibition of fluorescence tracer red binding to human ERG measured after 4 hrs by fluorescence polarization assay
# Conditions: not given
# Voltage-gated inwardly rectifying potassium channel KCNH2, sequence (Q12809 whole entry): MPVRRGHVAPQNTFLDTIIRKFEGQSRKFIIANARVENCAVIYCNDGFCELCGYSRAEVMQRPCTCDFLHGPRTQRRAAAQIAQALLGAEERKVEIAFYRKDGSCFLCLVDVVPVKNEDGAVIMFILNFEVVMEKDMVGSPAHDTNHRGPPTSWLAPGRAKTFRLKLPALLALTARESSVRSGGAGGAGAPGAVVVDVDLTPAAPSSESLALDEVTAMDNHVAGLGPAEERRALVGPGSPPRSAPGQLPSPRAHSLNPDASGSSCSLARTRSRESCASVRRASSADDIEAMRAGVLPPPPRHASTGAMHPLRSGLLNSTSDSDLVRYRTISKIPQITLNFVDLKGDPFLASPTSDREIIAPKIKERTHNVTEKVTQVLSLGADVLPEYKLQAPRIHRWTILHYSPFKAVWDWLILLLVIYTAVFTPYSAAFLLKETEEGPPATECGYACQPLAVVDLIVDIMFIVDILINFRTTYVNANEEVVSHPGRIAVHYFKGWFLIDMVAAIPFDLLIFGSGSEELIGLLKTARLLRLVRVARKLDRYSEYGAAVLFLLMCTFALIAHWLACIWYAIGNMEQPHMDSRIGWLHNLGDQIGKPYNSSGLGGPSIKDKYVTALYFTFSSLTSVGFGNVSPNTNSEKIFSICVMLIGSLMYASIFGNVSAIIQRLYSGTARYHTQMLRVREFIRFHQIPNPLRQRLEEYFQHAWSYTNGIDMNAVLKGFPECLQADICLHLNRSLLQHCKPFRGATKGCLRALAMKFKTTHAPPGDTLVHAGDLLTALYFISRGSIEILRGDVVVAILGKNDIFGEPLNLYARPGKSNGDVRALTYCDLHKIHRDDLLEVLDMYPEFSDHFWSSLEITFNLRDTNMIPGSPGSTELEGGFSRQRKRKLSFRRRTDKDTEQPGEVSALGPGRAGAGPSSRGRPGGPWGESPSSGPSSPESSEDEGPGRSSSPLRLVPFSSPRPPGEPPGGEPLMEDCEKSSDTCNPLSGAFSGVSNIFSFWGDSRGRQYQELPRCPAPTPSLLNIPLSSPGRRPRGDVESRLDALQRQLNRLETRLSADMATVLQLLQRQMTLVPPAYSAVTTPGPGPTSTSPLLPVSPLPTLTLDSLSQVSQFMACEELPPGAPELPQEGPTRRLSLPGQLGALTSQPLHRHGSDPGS
row,Structure (SMILES),IC50
1,COc1ccccc1S(=O)(=O)/C=C/c1ccccc1Cl,12000 nM
